# Entries after “also recorded” stand apart in the source; their conditions may differ.
# Experiments:
# Mtb-T313A = type: cell-based, Mycobacterium tuberculosis
# M. tuberculosis 43061 = assay: microbe, parasite or virus in culture; type: cell-based; conditions: Mycobacterium tuberculosis
# Mtb strains = assay: MIC, summary statement for Mtb strains; type: cell-based; conditions: Mycobacterium tuberculosis
# M. tuberculosis 59744 = assay: microbe, parasite or virus in culture; type: cell-based; conditions: Mycobacterium tuberculosis
# M. tuberculosis 45776 = assay: microbe, parasite or virus in culture; type: cell-based; conditions: Mycobacterium tuberculosis
# [1] = test system: Mtb spontaneous-resistant mutants 1 to 3 / rMtb-L176P; type: cell-based, Mycobacterium tuberculosis
# drug resistant isolates = assay: microbe, parasite or virus in culture; type: cell-based, M. tuberculosis; conditions: Mycobacterium tuberculosis
# M. tuberculosis MI1020 = assay: microbe, parasite or virus in culture; type: cell-based; conditions: Mycobacterium tuberculosis
# M. tuberculosis MB3649 = assay: microbe, parasite or virus in culture; type: cell-based; conditions: Mycobacterium tuberculosis
# M. tuberculosis 49975 = assay: microbe, parasite or virus in culture; type: cell-based; conditions: Mycobacterium tuberculosis
SMILES,activity against T313A mutant (Mtb-T313A),MIC (M. tuberculosis 43061) [µM],MIC (Mtb strains) [µM],MIC (M. tuberculosis 59744) [µM],MIC (M. tuberculosis 45776) [µM],resistance of mutants against compound [1],MIC (drug resistant isolates) [µM],MIC (M. tuberculosis MI1020) [µM],MIC (M. tuberculosis MB3649) [µM],MIC (M. tuberculosis 49975) [µM]
"CCc1nc2ccc(Cl)cn2c1C(=O)NCc1ccc(N2CCC(c3ccc(OC(F)(F)F)cc3)CC2)cc1 [Q203, reference compound]",resistant; also recorded: high level resistance,,,,,,,,,
"Cc1c(OCC(F)(F)F)ccnc1CSc1nc2ccccc2[nH]1 [LPZS, Lanzoprazole sulfide]",active; also recorded: does not confer high level resistance,0.49,< 2,0.78,0.52,stable phenotypic resistance,< 2,0.94,1.37,1.06

# Source: US10137116B2, “Benzimidazole sulfide derivatives for the treatment or prevention of tuberculosis” (priority 2015, dated 2018)
